Experimental data: patent publication US20240092799A1, “MNK INHIBITORS” (Hepagene Therapeutics (HK) Limited, priority 2020, published 2024)
pIC50: −log10 of the molar value. Where a name gives a salt, the structure may show the parent alone.

Columns and labels:
TMD-8 cell p-IF4E = test: p-eIF4E Signaling Cellular Assay (CisBio HTRF) in TMD-8 cells; assay type: cell-based; conditions: Homo sapiens, TMD8, 40 min, 40 min treatment
Summary of the method: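 TMD-8 cells (20 k/well, exponential phase, RPMI 1640 + 10% FBS) treated with compound for 40 min at 37 °C, then lysed for 30 min and incubated overnight at RT with HTRF antibodies. 665/620 nm ratio converted to % inhibition vs controls; IC50 from variable-slope nonlinear fit.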

MNK2 = MNK2 (Homo sapiens (Human), UniProt Q9HBH9); test: MNK Biochemical Enzymatic Assay (ADP-Glo), MNK2 binding assay
Sequence of MNK2 (Q9HBH9 whole entry): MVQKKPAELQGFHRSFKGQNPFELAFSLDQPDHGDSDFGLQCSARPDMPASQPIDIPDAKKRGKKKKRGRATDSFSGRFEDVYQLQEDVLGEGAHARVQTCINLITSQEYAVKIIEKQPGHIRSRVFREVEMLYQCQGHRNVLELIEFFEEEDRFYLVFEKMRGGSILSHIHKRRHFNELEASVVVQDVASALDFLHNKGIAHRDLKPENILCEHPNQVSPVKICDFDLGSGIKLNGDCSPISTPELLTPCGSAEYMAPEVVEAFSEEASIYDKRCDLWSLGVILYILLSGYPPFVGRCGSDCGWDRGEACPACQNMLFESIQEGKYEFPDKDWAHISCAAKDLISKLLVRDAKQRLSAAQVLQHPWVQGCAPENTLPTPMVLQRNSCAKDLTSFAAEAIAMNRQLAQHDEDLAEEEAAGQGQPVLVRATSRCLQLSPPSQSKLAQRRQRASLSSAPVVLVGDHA
Summary of the method: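 Human MNK1 or MNK2 was preincubated with a 10-point, 1:3 serial dilution of compound for 15 min at 25 °C. Substrate was then added and the reaction ran 60 min at 25 °C. ADP formed was read by ADP-Glo luminescence, and IC50 came from non-linear regression.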

| Compound | pIC50 (TMD-8 cell p-IF4E) | pIC50 (MNK2) |
| --- | --- | --- |
| CCN1CCN(c2ccc(Nc3cc(Nc4cc(C)c5c([n+]4[O-])C4(CCCCC4)NC5=O)ncn3)nc2)CC1 [Compound XXIX-AAO, 2′-[(6-{[5-(4-ethylpiperazin-1-yl)pyridin-2-yl]amino}pyrimidin-4-yl)amino]-4′-methyl-5′-oxo-6′H-spiro[cyclohexane-1,7′-pyrrolo[3,4-b]pyridin]-1′-ium-1′-olate] | 8.00 to 10.00 | 8.00 to 10.00 |
| Cc1cc(Nc2cc(Nc3ccc(N4CCN(CCO)CC4)cn3)ncn2)[n+]([O-])c2c1C(=O)NC21CCCCC1 [Compound XXIX-AAP, 2′-((6-((5-(4-(2-hydroxyethyl)piperazin-1-yl)pyridin-2-yl)amino)pyrimidin-4-yl)amino)-4′-methyl-5′-oxo-5′,6′-dihydrospiro[cyclohexane-1,7′-pyrrolo[3,4-b]pyridine]1′-oxide formate salt] | 8.00 to 10.00 | 8.00 to 10.00 |
| Cc1cc(Nc2cc(Nc3ccn(C(C)C)n3)ncn2)[n+]([O-])c2c1C(=O)NC21CCCCC1 [Compound XXIX-AAQ, 2′-((6-((1-isopropyl-1H-pyrazol-3-yl)amino)pyrimidin-4-yl)amino)-4′-methyl-5′-oxo-5′,6′-dihydrospiro[cyclohexane-1,7′-pyrrolo[3,4-b]pyridine] 1′-oxide] | 8.00 to 10.00 | 8.00 to 10.00 |
| Cc1cc(Nc2cc(Nc3ncn(C)n3)ncn2)[n+]([O-])c2c1C(=O)NC21CCCCC1 [Compound XXIX-AD, 4′-methyl-2′-((6-((1-methyl-Ill-1,2,4-triazol-3-yl)amino)pyrimidin-4-yl)amino)-5′-oxo-5′,6′-dihydrospiro[cyclohexane-1,7′-pyrrolo[3,4-b]pyridine] 1′-oxide] | 7.00 to 8.00 | 8.00 to 10.00 |
| Cc1cc(Nc2cc(Nc3ccn(C(F)(F)F)n3)ncn2)[n+]([O-])c2c1C(=O)NC21CCCCC1 [Compound XXIX-AF, 4′-methyl-5′-oxo-2′-[(6-{[1-(trifluoromethyl)pyrazol-3-yl]amino}pyrimidin-4-yl)amino]-6′H-spiro[cyclohexane-1,7′-pyrrolo[3,4-b]pyridin]-1′-ium-1′-olate] | 8.00 to 10.00 | 8.00 to 10.00 |
| Cc1cc(Nc2cc(Nc3ccccc3)ncn2)[n+]([O-])c2c1C(=O)NC21CCCCC1 [Compound XXIX-AH, 4′-methyl-5′-oxo-2′-((6-(phenylamino)pyrimidin-4-yl)amino)-5′,6′-dihydrospiro[cyclohexane-1,7′-pyrrolo[3,4-b]pyridine] 1′-oxide] | 8.00 to 10.00 | 8.00 to 10.00 |
| Cc1cccc(Nc2cc(Nc3cc(C)c4c([n+]3[O-])C3(CCCCC3)NC4=O)ncn2)n1 [Compound XXIX-AL, 4′-methyl-2′-((6-((6-methylpyridin-2-yl)amino)pyrimidin-4-yl)amino)-5′-oxo-5′,6′-dihydrospiro[cyclohexane-1,7′-pyrrolo[3,4-b]pyridine] 1′-oxide] | 7.00 to 8.00 | 8.00 to 10.00 |
| Cc1cc(Nc2cc(Nc3ncc(F)cc3F)ncn2)[n+]([O-])c2c1C(=O)NC21CCCCC1 [Compound XXIX-AM, 2′-((6-((3,5-difluoropyridin-2-yl)amino)pyrimidin-4-yl)amino)-4′-methyl-5′-oxo-5′,6′-dihydrospiro[cyclohexane-1,7′-pyrrolo[3,4-b]pyridine] 1′-oxide] | 7.00 to 8.00 | 8.00 to 10.00 |
| Cc1cc(Nc2cc(Nc3ccc(N4CCN(C)CC4)cn3)ncn2)[n+]([O-])c2c1C(=O)NC21CCCCC1 [Compound XXIX-AO, 4′-methyl-2′-[(6-{[5-(4-methylpiperazin-1-yl)pyridin-2-yl]amino}pyrimidin-4-yl)amino]-5′-oxo-5′,6′-dihydrospiro[cyclohexane-1,7′-pyrrolo[3,4-b]pyridin]-1′-ium-1′-olate] | 8.00 to 10.00 | 8.00 to 10.00 |
| Cc1cc(Nc2cc(N[C@H]3C[C@@H](O)C3)ncn2)[n+]([O-])c2c1C(=O)NC21CCCCC1 [Compound XXIX-AP, 2′-((6-(((cis)-3-hydroxycyclobutyl)amino)pyrimidin-4-yl)amino)-4′-methyl-5′-oxo-5′,6′-dihydrospiro[cyclohexane-1,7′-pyrrolo[3,4-b]pyridine] 1′-oxide] | 7.00 to 8.00 | 8.00 to 10.00 |
| Cc1cc(Nc2cc(Nc3cc[nH]n3)ncn2)[n+]([O-])c2c1C(=O)NC21CCCCC1 [Compound XXIX-AS, 2′-((6-((1H-pyrazol-3-yl)amino)pyrimidin-4-yl)amino)-4′-methyl-5′-oxo-5′,6′-dihydrospiro[cyclohexane-1,7′-pyrrolo[3,4-b]pyridine] 1′-oxide] | 8.00 to 10.00 | 8.00 to 10.00 |
| Cc1cc(Nc2cc(Nc3ccn(CCO)n3)ncn2)[n+]([O-])c2c1C(=O)NC21CCCCC1 [Compound XXIX-AT, 2′-((6-((1-(2-hydroxyethyl)-1H-pyrazol-3-yl)amino)pyrimidin-4-yl)amino)-4′-methyl-5′-oxo-5′,6′-dihydrospiro[cyclohexane-1,7′-pyrrolo[3,4-b]pyridine] 1′-oxide] | 8.00 to 10.00 | 8.00 to 10.00 |
| Cc1cc(Nc2cc(Nc3cccc(CO)n3)ncn2)[n+]([O-])c2c1C(=O)NC21CCCCC1 [Compound XXIX-AU, 2′-((6-((6-(hydroxymethyl)pyridin-2-yl)amino)pyrimidin-4-yl)amino)-4′-methyl-5′-oxo-5′,6′-dihydrospiro[cyclohexane-1,7′-pyrrolo[3,4-b]pyridine] 1′-oxide formate salt] | 8.00 to 10.00 | 8.00 to 10.00 |
| Cc1cc(Nc2cc(NC(=O)C3CCCO3)ncn2)[n+]([O-])c2c1C(=O)NC21CCCCC1 (stereo not drawn) [Compound XXIX-AW, 4′-methyl-5′-oxo-2′-((6-(tetrahydrofuran-2-carboxamido)pyrimidin-4-yl)amino)-5′,6′-dihydrospiro[cyclohexane-1,7′-pyrrolo[3,4-b]pyridine] 1′-oxide] | 7.00 to 8.00 | 8.00 to 10.00 |
| Cc1cc(Nc2cc(Nc3ccccn3)ncn2)[n+]([O-])c2c1C(=O)NC21CCCCC1 [Compound XXIX-D, 4′-methyl-5′-oxo-2′-((6-(pyridin-2-ylamino)pyrimidin-4-yl)amino)-5′,6′-dihydrospiro[cyclohexane-1,7′-pyrrolo[3,4-b]pyridine] 1′-oxide] | 8.00 to 10.00 | 8.00 to 10.00 |
| Cc1cc(Nc2cc(Nc3ccn(C)n3)ncn2)[n+]([O-])c2c1C(=O)NC21CCCCC1 [Compound XXIX-K, 4′-methyl-2′-((6-((1-methyl-1H-pyrazol-3-yl)amino)pyrimidin-4-yl)amino)-5′-oxo-5′,6′-dihydrospiro[cyclohexane-1,7′-pyrrolo[3,4-b]pyridine] 1′-oxide] | 8.00 to 10.00 | 8.00 to 10.00 |
| COc1c(N)ncnc1Nc1cc(C)c2c([n+]1[O-])C1(CCCCC1)NC2=O [Compound XXIX-Z, 2′-((6-amino-5-methoxypyrimidin-4-yl)amino)-4′-methyl-5′-oxo-5′,6′-dihydrospiro[cyclohexane-1,7′-pyrrolo[3,4-b]pyridine] 1′-oxide] | 8.00 to 10.00 | 8.00 to 10.00 |
| CN(C)[C@H]1CCN(C(=O)C2CCc3c(sc4ncnc(Nc5cc6c(s5)C(=O)NC65CCCCC5)c34)C2)C1 (stereo partly drawn) [Compound XXV, 2′-((7-((S)-3-(Dimethylamino)pyrrolidine-1-carbonyl)-5,6,7,8-tetrahydrobenzo[4,5]thieno[2,3-d]pyrimidin-4-yl)amino)spiro[cyclohexane-1,4′-thieno[2,3-c]pyrrol]-6′(5′H)-one] | 6.00 to 7.00 | 7.00 to 8.00 |
